Source: patent publication US12398110B2, “Second generation inhibitors of mitochondrial permeability transition pore with improved plasma stability” (Oregon Health & Science University, priority 2019, dated 2025)
Where two headings read alike, the source gives them in different places.

Assays:
Type in all cases: biochemical
mtPTP [1] = test: Ca2+ overload induced mitochondrial swelling in isolated mouse liver mitochondria; conditions: for mtPTP inhibitory activity (in words): SAR discussion of Table 2
Description: We next sought to evaluate the effects of TR001-13 on mtPTP activity in vitro. This was performed on isolated mitochondria. In isolated mitochondria induction of mtPTP opening leads to mitochondrial swelling due to the oncotic pressure gradient created by matrix proteins >1.5 kDa that cannot diffuse through the open pore. In in vitro experiments, where isolated mitochondria are routinely suspended in sucrose-based isosmotic solutions, the change in mitochondrial size can be measured spectrometrically by detecting the decrease in light scattering at 540 nm.
(§1) Isolation of mitochondria. C57BL6/N mouse liver mitochondria were prepared from 2 to 6 month old male mice by standard differential centrifugation. Mice fed ad libitum were euthanized with CO2 followed cervical dislocation, their livers were existed and placed in a glass beaker containing ice-cold isolation buffer (IB: 0.25 m sucrose, 10 mm Tris-HCl, 0.1 mm EGTA-Tris, pH 7.4) supplemented with fatty acid free bovine serum albumin. Livers were then cut into small pieces with scissors, rinsed with ice-cold IB, and passed through a pre-chilled Potter homogenizer with Teflon pestle. The homogenate (˜30 mL per liver) was transferred to centrifuge tubes, and unbroken cells and nuclei were removed by centrifugation at 700 g for 10 min at 4° C. The supernatant containing mitochondria and other organelles was transferred to new tubes and centrifuged at 6000 g for 10 min at 4° C. The resulting supernatant was discarded and mitochondrial pellet was carefully suspended in ice-cold IB and spun at 9500 g for 5 min at 4° C. The pellet was suspended in IB to give a protein concentration of ˜60-80 mg/mL and stored on ice. Experiments were started immediately and completed within 5 h. Protein concentration was determined by the Biuret method.
Assessment of mitochondrial swelling. Changes in mitochondrial volume of isolated mouse liver mitochondria were followed in a 96-well clear assay plate at a final volume of 0.2 mL and 0.25 mg/mL mitochondrial protein. Absorbance was read for 30 min at 540 nm on a Tecan Infinite F200 plate reader. Activity of test compounds was addressed as follows: First, 0.1 mL of sucrose assay buffer (SAB: 0.250 m sucrose, 10 mm MOPS-Tris, 0.01 mm EGTA-Tris, 1.0 mm phosphoric acid-Tris, 10 mm glutamate and 5 mm malate, pH 7.4) supplemented with twice the CaCl2 concentration required to induce mitochondrial swelling (which was determined for each preparation of mitochondria, typically 50 μm) was dispensed to the assay plate. A set of wells also contained 2.0 mm EGTA (to prevent mitochondrial swelling). The test wells contained a range of concentrations (in 1:2 serial dilutions) of the compounds of interest or 2% DMSO. Experiments were started by the addition of 0.1 mL of mitochondrial suspension (0.5 mg/mL mitochondria in SAB without respiratory substrates) to the assay plates. EC50s±SE were determined with OriginPro software by applying Hill1 function fitting algorithm on average concentration response data of n=3-41 independent preparations.

mtPTP [2] = test: Ca2+ retention capacity (CRC) of isolated mouse liver mitochondria
Description: CRC determines the Ca^2+ threshold required for mtPTP activation; inhibitors of mtPTP are expected to increase the Ca^2+ threshold required for mtPTP induction. Extramitochondrial Ca^2+ changes are detected using the membrane-impermeant Ca^2+ indicator, Calcium Green-5N.
as §1
Assessment of Ca^2+ retention capacity (CRC). CRC of isolated mouse liver mitochondria was assessed as follows: First, 0.1 mL of SAB were dispensed to a 96-well black assay plate in the presence of 2% DMSO (control wells) or varying concentrations of test compounds, in 1:2 serial dilutions. Then, 0.1 mL of 0.5 mg/mL mitochondria in SAB devoid of respiratory substrates, but supplemented with 1 μm Calcium Green-5N were added to all wells of the assay plate. A train of 10 μm CaCl2 pulses was added at 2 min intervals, and fluorescence intensity (ex/em 485/535 nm) was read on Tecan Infinite F200 plate reader.

[3] = test system: inner mitochondrial membrane potential; test: Rhodamine 123 (Rh123) uptake, mitochondrial membrane potential of isolated mouse liver mitochondria
From the text: We next evaluated the mitochondrial toxicity of the new triazole analogs by testing their ability to interfere with accumulation of the membrane-permeant cationic fluorescent dye rhodamine 123 (Rh123). The mitochondrial uptake of positively charged Rh123 is driven by the inside negative IMM potential, which is built by the respiratory chain or maintained by ATP hydrolysis if certain conditions are met. […] It should be noted, however, that toxicity for these compounds only occurs at ˜10-1000-fold higher concentrations compared to mtPTP inhibition, providing a good therapeutic window.
Assessment of mitochondrial membrane potential. Mitochondrial membrane potential—to evaluate toxicity—of isolated mouse liver mitochondria was assessed based on fluorescence quenching of the cationic fluorescent dye Rh123 upon its accumulation into mitochondrial matrix due to inside negative membrane potential. Compounds that interfere with the build-up or maintenance of IMM potential would shift Rh123 fluorescence to higher values compared to DMSO treated samples. Uncoupler FCCP was used to account for nonspecific fluorescence. First, 0.1 mL of SAB was dispensed to a 96-well black assay plate. A set of wells also contained 0.8 μm FCCP (to prevent Rh123 uptake). The test wells contained a range of concentrations (in 1:2 serial dilutions) of the compounds of interest or 2% DMSO. Then, 0.1 mL of 0.5 mg/mL mitochondria in SAB devoid of respiratory substrates but supplemented with 0.8 μm Rh123 were added to all wells of the assay plate. Fluorescence intensity (ex/em 485/535 nm) was read on a Tecan Infinite F200 plate reader for 7 min and value at 5 min was considered for analysis. EC50s±SE were determined with OriginPro software by applying Hill1 function fitting algorithm on average concentration response data of n=3 independent preparations.

[4] = Mouse Liver Mitochondria (MLM), comparative examples, read-out: Swelling EC50
[5] = Mouse Liver Mitochondria (MLM), comparative examples
[6] = Mouse Liver Mitochondria (MLM), comparative examples, read-out: Rh123 EC50
[7] = isolated mouse liver mitochondria, average ± SEM, n = 3-41, read-out: Mitochondrial Swelling EC50
[8] = compound treated CRC to DMSO treated CRC0 ratio, 1.25 μM, average ± SEM, n = 3-25
[9] = interference with Rh123 uptake to mitochondria, average ± SEM, n = 3, read-out: Rh123 uptake EC50

| SMILES | EC50 (mtPTP [1]; [4]) [µM] | CRC/CRC0 at 1.25 μM (mtPTP [2]; [5]) | EC50 [3, 6] [µM] | EC50 (mtPTP [1]; [7]) [µM] | fold decrease in activity compared to TR001 (mtPTP [1]; mitochondrial swelling, vs TR001) [fold] | CRC/CRC0 at 1.25 μM (mtPTP [2]; [8]) | EC50 [3, 9] [µM] | mtPTP inhibitory activity (in words) (mtPTP [1]) |
| --- | --- | --- | --- | --- | --- | --- | --- | --- |
| Cc1ccc(Cl)cc1NC(=O)c1cn(-c2ccc(F)c(O)c2)nn1 [drawing 47] | 4 | 1 | 10 | – | – | – | – | – |
| Cc1ccc(Cl)cc1NC(=O)c1cn(-c2cccc(O)c2F)nn1 [TR003, N-(5-chloro-2-methylphenyl)-1-(2-fluoro-3-hydroxyphenyl)-1H-1,2,3-triazole-4-carboxamide] | – | – | – | 0.152 ± 0.036 | 5 | 7.4 ± 0.5 | 29.3 ± 3.3 | – |
| Cc1ccc(Cl)cc1NC(=O)c1cn(-c2ccc(C)c(O)c2Cl)nn1 [drawing 66] | > 20 | 1 | > 40 | – | – | – | – | – |
| Cc1ccc(Cl)cc1NC(=O)c1cn(-c2ccc(Br)c(O)c2)nn1 [TR009, 1-(4-bromo-3-hydroxyphenyl)-N-(5-chloro-2-methylphenyl)-1H-1,2,3-triazole-4-carboxamide] | – | – | – | 0.475 ± 0.057 | – | 2.4 ± 0.2 | > 40 | decreased activity |
| Cc1ccc(Cl)cc1NC(=O)c1cn(-c2cc(O)cc(C(F)(F)F)c2)nn1 [TR013, N-(5-chloro-2-methylphenyl)-1-(3-(trifluoromethyl)-5-hydroxyphenyl)-1H-1,2,3-triazole-4-carboxamide] | – | – | – | 0.534 ± 0.047 | – | 2.9 ± 0.1 | 6.2 ± 1.2 | significantly reduced activity |
| CCOC(=O)Oc1cc(-n2cc(C(=O)Nc3cc(Cl)ccc3C)nn2)ccc1F | 0.581 | 1.8 | > 40 | – | – | – | – | – |
| Cc1ccc(Cl)cc1NC(=O)c1cn(-c2cc(O)cc(C(F)(F)F)c2)nn1 [drawing 71] | 0.534 | 3 | 6 | – | – | – | – | – |
| Cc1ccc(Cl)cc1NC(=O)c1cn(-c2cccc(O)c2Cl)nn1 [TR007, N-(5-chloro-2-methylphenyl)-1-(2-chloro-3-hydroxyphenyl)-1H-1,2,3-triazole-4-carboxamide] | – | – | – | > 20 | – | 1.2 ± 0.1 | > 40 | – |
| Cc1ccc(Cl)cc1NC(=O)c1cn(-c2cccc(O)c2Cl)nn1 [drawing 70] | > 20 | 1.2 | > 40 | – | – | – | – | – |
| Cc1ccc(Cl)cc1NC(=O)c1cn(-c2ccc(Cl)c(O)c2)nn1 [TR006, N-(5-chloro-2-methylphenyl)-1-(4-chloro-3-hydroxyphenyl)-1H-1,2,3-triazole-4-carboxamide] | – | – | – | 0.135 ± 0.015 | – | 3.9 ± 0.3 | > 40 | decreased activity |
| Cc1ccc(N=[N+]=[N-])cc1NC(=O)c1cn(-c2ccc(F)c(O)c2)nn1 | 0.578 | 2.4 | > 40 | – | – | – | – | – |
| CC(=O)Oc1cc(-n2cc(C(=O)Nc3cc(Cl)ccc3C)nn2)ccc1F | 0.083 | 4.5 | > 40 | – | – | – | – | – |
| Cc1ccc(Cl)cc1NC(=O)c1cc(-c2ccc(F)c(O)c2)on1 [drawing 45] | 0.002 | 13.5 | > 100 | – | – | – | – | – |
| CC(=O)c1ccc(C)c(NC(=O)c2cn(-c3ccc(F)c(O)c3)nn2)c1 | 5.2 | 1.4 | > 40 | – | – | – | – | – |
| Cc1ccc(Cl)cc1NC(=O)c1cn(-c2ccc(Cl)c(O)c2)nn1 [drawing 59] | 0.135 | 3.9 | > 40 | – | – | – | – | – |
| Cc1ccc(Cl)cc1NC(=O)c1cn(-c2ccc(F)c(O)c2)nn1 [drawing 46] | 0.025 | 7.4 | > 100 | – | – | – | – | – |
| Cc1ccc(I)cc1NC(=O)c1cn(-c2ccc(F)c(O)c2)nn1 | 0.028 | 8.3 | 14.7 | – | – | – | – | – |
| Cc1ccc(Cl)cc1NC(=O)c1cn(-c2ccc(C)c(O)c2Cl)nn1 [TR010, N-(5-chloro-2-methylphenyl)-1-(2-chloro-3-hydroxy-4-methylphenyl)-1H-1,2,3-triazole-4-carboxamide] | – | – | – | > 20 | – | 1.1 ± 0.1 | > 40 | – |
| Cc1ccc(Cl)cc1NC(=O)c1cn(-c2ccc(Br)c(O)c2)nn1 [drawing 60] | 0.475 | 2.4 | > 40 | – | – | – | – | – |
| Cc1ccc(Cl)cc1NC(=O)c1cn(-c2cc(O)cc(F)c2)nn1 [TR002, N-(5-chloro-2-methylphenyl)-1-(3-fluoro-5-hydroxyphenyl)-1H-1,2,3-triazole-4-carboxamide] | – | – | – | 0.01 ± 0.002 | – | 12.6 ± 0.6 | 14.1 ± 1.2 | most potent analog |
| Cc1ccc(Cl)cc1NC(=O)c1cn(-c2cccc(O)c2C)nn1 [drawing 68] | 10.6 | 1.4 | > 40 | – | – | – | – | – |
| Cc1ccc(Cl)cc1NC(=O)c1cn(-c2cccc(O)c2C)nn1 [TR012, N-(5-chloro-2-methylphenyl)-1-(3-hydroxy-2-methylphenyl)-1H-1,2,3-triazole-4-carboxamide] | – | – | – | 10.6 ± 1.4 | – | 1.4 ± 0.1 | > 40 | inactive |
| CCCOc1ccc(Cl)cc1NC(=O)c1cn(-c2ccc(F)c(O)c2)nn1 | 8.7 | 1.8 | > 40 | – | – | – | – | – |
